Results published in patent US20050112573A1, “Method of detecting toxic substance” (priority 2001, published 2005).

System: yeast genes (level of expressed mRNA)
Experiment: DNA chip analysis of expressed mRNA of yeast genes after 2 h culture with a toxic chemical substance
Assay type: cell-based, Saccharomyces cerevisiae S288C
Conditions: for The level of expressed mRNA in the presence of chemical substance/ (ratio to absence): transport facilitation protein gene; for The level of expressed mRNA in the presence of chemical substance/: ratio to no chemical
Procedure: Yeast (Saccharomyces cerevtisiae S288C (α SUC2mal mel gap2 CUP1)) were cultured at 25° C. on YPD medium (yeast extract 1%, polypepton 2%, glucose 2%). One of toxic chemical substances was added to the cell at logarithmic growth phase, and the cell was further cultured for two hours. Cell was cultured without any chemical substance in the same condition, and was used as control. Concentrations of the chemical substances were defined to inhibit the growth of the yeast but not lead to death.
After the completion of cultivation, the culture was centrifuged to collect the cells. To the cells, sodium acetate buffer (50 mM sodium acetate, 10 mM EDTA, 1% SDS) was added, and the mixture was shaken at 65° C. for five minutes, followed by returning to room temperature, and obtaining the supernatant, which procedure was repeated two times. To the supernatant, ½ amount of a solution of phenol/chloroform was added, and the mixture was centrifuged to give a supernatant, which was added with an equal amount of chloroform, and the mixture was centrifuged to give a supernatant. To the supernatant, an equal amount of isopropanol containing 0.3 M sodium acetate was added, and the mixture was allowed to stand at room temperature for 30 minutes, after which the mixture was centrifuged to give a sediment of the whole RNAs. Seventy % ethanol was added to the sediment, and the mixture was again centrifuged to give a sediment, which was then dried and dissolved in water. mRNA was isolated from the whole RNAs as followings. In view of the fact that a poly A chain is attached to the 3′ terminus of mRNA, a polynucleotide having a poly T structure which was immobilized on the surface of latex beads was used to trap the mRNA, and then the mRNA was washed and eluted with spine column (Oligotex-dT30<Super>mRNA Purification Kit, Takara). Reverse transcription of the mRNA was conducted with a reverse transcriptase (Super Script II Reverse Transcriptase; catalogue No. 18064-014, GibcoBRL) using fluorescence-labeled nucleotides to give cDNAs that were introduced with Cy3-dUTP or Cy5-dUTP during the reverse transcription.
The labeled cDNAs were dissolved in TE buffer (10 mM Tris-HCl/1 mM EDTA, pH8.0), and the solution was dropped on the DNA chip containing the whole genes of yeast (DNA Chip Research Inc. Japan) so that the cDNAs were hybridized on the DNA chip at 65° C. for over 12 hours. The fluoresces intensity of the DNA chip was read with a scanner, and the ratio relative to the fluorescence intensity resulting from the absence of chemical substance was estimated as the following, which is shown in Tables 1 to 9: [formula]
In the Tables, “Intensity” indicated in the rightmost column is a value of the level of expressed mRNA of each gene in control cells as divided by the average level of the expressions of the whole genes.

For sodium dodecylbenzosulfonate [(17)], the “The level of expressed mRNA in the presence of chemical substance/ (ratio to absence), gene YBR122C” value (yeast gene YBR122C, mitochondria-located protein genes, 2 h culture with chemical) was 0.9, the “The level of expressed mRNA in the presence of chemical substance/ (ratio to absence)” value (yeast gene YBR127C) was 0.8 and the “The level of expressed mRNA in the presence of chemical substance/ (ratio to absence)” value (yeast gene YBR132C) was 1.1. For the same substance, the “The level of expressed mRNA in the presence of chemical substance/in the absence of chemical substance” value (yeast gene YBR149W) was 2.1, the “The level of expressed mRNA in the presence of chemical substance/ (ratio to absence)” value (yeast gene YBR207W) was 1.2 and the “The level of expressed mRNA in the presence of chemical substance/The level of expressed mRNA in the absence of chemical substance” value (yeast gene YBR214W) was 1.1. The “The level of expressed mRNA in the presence of chemical substance/ (ratio to absence)” value (yeast gene YBR241C) was 1.0, the “The level of expressed mRNA in the presence of chemical substance/ (ratio to absence), gene YBR251W” value (yeast gene YBR251W, mitochondria-located protein genes, 2 h culture with chemical) was 0.9 and the “The level of expressed mRNA in the presence of chemical substance/in the absence of chemical substance” value (yeast gene YBR256C) was 2.6. For the same substance, the “The level of expressed mRNA in the presence of chemical substance/” value (yeast gene YBR269C) was 1.5, the “The level of expressed mRNA in the presence of chemical substance/” value (yeast gene YBR280C) was 1.1 and the “The level of expressed mRNA in the presence of chemical substance/in the absence of chemical substance” value (yeast gene YBR284W) was 1.1. The “The level of expressed mRNA in the presence of chemical substance/” value (yeast gene YBR285W) was 2.5, the “The level of expressed mRNA in the presence of chemical substance/ (ratio to absence)” value (yeast gene YBR291C) was 0.9 and the “The level of expressed mRNA in the presence of chemical substance/” value (yeast gene YBR292C) was 0.9. For the same substance, the “The level of expressed mRNA in the presence of chemical substance/ (ratio to absence)” value (yeast gene YBR293W) was 1.0, the “The level of expressed mRNA in the presence of chemical substance/in the absence of chemical substance” value (yeast gene YBR294W) was 1.0 and the “The level of expressed mRNA in the presence of chemical substance/ (ratio to absence)” value (yeast gene YBR295W) was 1.3. For the same substance, the “The level of expressed mRNA in the presence of chemical substance/in the absence of chemical substance” value (yeast gene YBR296C) was 3.8, the “The level of expressed mRNA in the presence of chemical substance/ (in its absence), gene YBR298C” value (yeast gene YBR298C, ratio of DNA chip fluorescence intensity to that without chemical substance) was 0.9 and the “The level of expressed mRNA in the presence of chemical substance/in the absence of chemical substance” value (yeast gene YCL018W) was 1.3. For the same substance, the “The level of expressed mRNA in the presence of chemical substance/The level of expressed mRNA in the absence of chemical substance” value (yeast gene YCL020W) was 0.9, the “The level of expressed mRNA in the presence of chemical substance/ (ratio to absence)” value (yeast gene YCL025C) was 0.6 and the “The level of expressed mRNA in the presence of chemical substance/The level of expressed mRNA in the absence of chemical substance” value (yeast gene YCL027W) was 0.7. The “The level of expressed mRNA in the presence of chemical substance/ (ratio to absence)” value (yeast gene YCL038C) was 1.4, the “The level of expressed mRNA in the presence of chemical substance/in the absence of chemical substance” value (yeast gene YCL040W) was 1.4 and the “The level of expressed mRNA in the presence of chemical substance/in the absence of chemical substance” value (yeast gene YCL043C) was 0.9. The “The level of expressed mRNA in the presence of chemical substance/in the absence of chemical substance” value (yeast gene YCL050C) was 1.0, the “The level of expressed mRNA in the presence of chemical substance/ (ratio to absence)” value (yeast gene YCL069W) was 1.0 and the “The level of expressed mRNA in the presence of chemical substance/The level of expressed mRNA in the absence of chemical substance” value (yeast gene YCR004C) was 1.4. The “The level of expressed mRNA in the presence of chemical substance/in the absence of chemical substance” value (yeast gene YCR012W) was 0.8, the “The level of expressed mRNA in the presence of chemical substance/ (ratio to absence)” value (yeast gene YCR024C-A) was 0.9 and the “The level of expressed mRNA in the presence of chemical substance/ (ratio to absence)” value (yeast gene YCR037C) was 1.4. For the same substance, the “The level of expressed mRNA in the presence of chemical substance/ (ratio to absence), gene YCR046C” value (yeast gene YCR046C, mitochondria-located protein genes, 2 h culture with chemical) was 1.3, the “The level of expressed mRNA in the presence of chemical substance/The level of expressed mRNA in the absence of chemical substance” value (yeast gene YCR071C) was 1.2 and the “The level of expressed mRNA in the presence of chemical substance/ (ratio to absence), gene YCR083W” value (yeast gene YCR083W, mitochondria-located protein genes, 2 h culture with chemical) was 1.3. For the same substance, the “The level of expressed mRNA in the presence of chemical substance/ (ratio to absence of chemical substance)” value (yeast gene YCR083W, stress protein genes, DNA chip) was 1.3, the “The level of expressed mRNA in the presence of chemical substance/The level of expressed mRNA in the absence of chemical substance” value (yeast gene YCR088W) was 1.4 and the “The level of expressed mRNA in the presence of chemical substance/ (ratio to absence)” value (yeast gene YCR098C) was 1.7. The “The level of expressed mRNA in the presence of chemical substance/in the absence of chemical substance” value (yeast gene YCR107W) was 1.3, the “The level of expressed mRNA in the presence of chemical substance/The level of expressed mRNA in the absence of chemical substance” value (yeast gene YDL008W) was 1.5 and the “The level of expressed mRNA in the presence of chemical substance/in the absence of chemical substance” value (yeast gene YDL010W) was 1.5. The “The level of expressed mRNA in the presence of chemical substance/in the absence of chemical substance” value (yeast gene YDL021W) was 1.9, the “The level of expressed mRNA in the presence of chemical substance/in the absence of chemical substance” value (yeast gene YDL024C) was 0.9 and the “The level of expressed mRNA in the presence of chemical substance/ in its absence, gene YDL067C” value (yeast gene YDL067C, energy system protein genes, 2 h culture with the chemical, ratio to control without chemical) was 1.2. For the same substance, the “The level of expressed mRNA in the presence of chemical substance/ (ratio to absence), gene YDL067C” value (yeast gene YDL067C, mitochondria-located protein genes, 2 h culture with chemical) was 1.2 and the “The level of expressed mRNA in the presence of chemical substance/ in its absence, gene YDL078C” value (yeast gene YDL078C, energy system protein genes, 2 h culture with the chemical, ratio to control without chemical) was 1.1.
